The subject of data set [1] is HDAC class I and II enzymes (live yeast cells, HeLa nuclear extract, semi-purified human HDAC1). As to the kind of experiment: HDAC-Glo I/II luminescence HDAC enzymatic assay. To be noted: three HDAC sources. In kind it is biochemical, S. cerevisiae; human.
Experimental: The HDAC-Glo I/II screening system (Promega, cat #G6430) was adapted to measure the effect of compounds on the enzymatic activity of human and yeast HDAC sources. […] FLAG-HDAC1 was eluted from anti-FLAG beads before running the assay, using a FLAG peptide. Nuclear extracts from human HeLa cells were provided in the assay kit. HDAC enzymatic activity was measured following the manufacturer's protocol. Briefly, linear ranges of the assay were determined by measuring luminescence signals, in a serial dilution manner, for semi-purified human HDAC1, or live yeast cells, diluted in the HDAC-Glo I/II buffer. For HeLa nuclear extracts, the manufacturer provided this information in the assay kit. For the different HDAC sources, dilution factors corresponding to signals in the linear ranges were used. To test the effect of compounds (three or four replicates) on HDAC enzymatic activity, equal volumes of HDAC sources (5 μL), and inhibitors (5 μL) were added to the different wells of a white, flat bottom 384-well plate. The plate was then briefly centrifuged with a tabletop centrifuge, and gently shaken for 1 min at 700 rpm. The plate was tightly sealed to prevent evaporation, and incubated at room temperature for 1 h. […] Luminescence signals were measured using a TriStar luminometer from Berthold Technologies, with 1 s integration time per sample. […]
Data set [2] has as its system CDKN1A, SOCS3, EGR1 in SK-N-BE(2)-C cells. As to the kind of experiment: RT-qPCR of SIN3 HDAC complex-regulated genes in neuroblastoma cells. To be noted: 100 μM for 16 h. In kind it is cell-based, human. How it is done:
(§1) The RT-qPCR protocol used in this study was described elsewhere [Choi et al 2012]. Culture, RNA extraction, and compound treatments for neuroblastoma SK-N-BE(2)-C cells are described below. Approximately 1 μg RNA per sample was used for reverse transcription. Using a thermocycler, RNA was denatured in the presence of 0.2 μg 18 mer oligo-dT by heating the plate at 65° C. for 10 min. The plate was then immediately cooled down on ice to anneal oligo-dT on the poly-A tail of mRNA. A master mix of AffinityScript Multiple Temperature Reverses Transcriptase (Agilent, cat #600107) was prepared following the manufacturer's protocol, and mixed with RNA samples previously annealed with the oligo-dT. The plate was incubated at 42° C. for 2 h to generate cDNAs from mRNA templates. The reverse transcriptase was then denatured by heating the plate at 70° C. for 15 min. The resulting cDNA was diluted (1:20) in sterile, ultra pure water (ddH2O), and stored at −20° C. until used for qPCR. To measure gene expression, the diluted cDNA was mixed with 5 μL PowerUp SYBR Green master mix (Applied Biosystems, cat #A25743), and the mix of primers (forward+reverse, see FIG. 31; 0.3 μM final concentration) for a total volume of 10 μL. Two technical replicates were generated per cDNA sample in the 384-well PCR plate (Applied Biosystems, cat #4343370). The plate was tightly sealed with optical adhesive film (Applied Biosystems, cat #4311971). Quantitative PCR was conducted with a QuantStudio real-time PCR system from Applied Biosystems, with the following settings: 50° C./2 min, 95° C./10 min, 96° C./15 s/40 cycles, and 60° C./30 s. Dissociation curves were checked for each PCR product, to assess the specificity of the PCR amplicons.
SK-N-BE(2)-C cells were maintained in cell culture flasks supplemented with 10% Fetal bovine serum (FBS) and penicillin/streptomycin (PS) in Dulbecco's Modified Eagle's Medium (DMEM). The cells were maintained at a log phase in a humidified 5% CO2 incubator at 37° C. For testing the effect of the compounds on gene expression, approximately 0.1 million cells were seeded on each well of 24-well cell culture plates, with 1 mL 10% FBS+PS+DMEM. 24 h after seeding the cells, they were exposed to the compounds or DMSO control for 16 h in a humidified 5% CO2 incubator at 37° C., before harvesting them.
Cells were harvested for RNA extraction using Nucleospin 96 RNA (Macherey-Nagel, cat #740709.4) following manufacturer's protocol. Briefly, supernatant was removed, and the cells were gently washed with 1× phosphate-buffered saline. 300 μL lysis buffer were added to each well of 24 well cell culture plates. Roughly 0.1 million cells were used for harvesting each RNA sample. RNA concentration was measured for all purified RNA samples using a nanodrop spectrophotometer.
A general note: Real-time PCR tracks product formation cycle by cycle.

The test system of data set [3] is cycloheximide (CYH) sensitivity. As to the kind of experiment: Yeast cycloheximide sensitivity at 37° C. In kind it is cell-based, S. cerevisiae. How it is done:
For assessment of cycloheximide (CYH) sensitivity at 37° C., yeast cells with the cyh2^R genotype (FIG. 29) were first transformed with an empty pDEST-AD-TRP1-CYH2 plasmid (FIG. 30) before running the different experiments. Selection of the plasmid was maintained by culturing cells in SC-W medium.

The subject of data set [4] is Rpd3-sensitive acid phosphatase activity. Put plainly: Yeast acid phosphatase plate assay. In kind it is cell-based, S. cerevisiae. To be noted: phosphate-rich (high Pi) medium. The procedure: The acid phosphatase plate assay was implemented as previously described [To et al 1973, Loewith et al 2001], with minor modifications. Cells were grown on high Pi medium (see above) for 2 days, at 30° C. A staining solution containing 2 mg/mL of 1-naphtyl phosphate (Sigma, N5602) and 4 mg/mL fast blue B salt (Sigma, D9805) was then prepared in 50 mM sodium acetate buffer pH 4.0±0.1, and maintained at 50° C. for ˜30 min before being filtered. Meanwhile, a solution of 10 mg/mL (1% weight/volume) ultra pure low melting point (LMP) agarose (Invitrogen, 15517-022) was prepared in 50 mM sodium acetate buffer pH 4.0±0.1, by microwaving the suspension until complete dissolution of the powder. The volume of the agarose solution was checked and readjusted with 50 mM sodium acetate buffer pH 4.0±0.1. The agarose solution was then mixed with the filtered staining solution by vortexing briefly, and the resulting suspension was kept at 50° C. for ˜15 min. The solid agar plate on which cells grew for 2 days were then gently overlaid with the agarose-containing staining solution, allowing its gelification on top of the cells. A red coloring started to appear ˜2 min after covering cells with the solution.

Data set [5] concerns Rpd3-regulated genes (URS-URA3, INO1, IME2, CAR1, SPO13, TRK2). Put plainly: RT-qPCR of Rpd3-regulated genes in yeast. The format is cell-based, S. cerevisiae. How it is done: After yeast cells reached OD600 nm ˜0.5 in 0.8-1 mL of YPD, they were grown for two more hours at room temperature before being centrifuged to remove supernatant and freezing pellets on dry ice. For compound treatments, yeast cells at OD600 nm˜0.5 in YPD were incubated at room temperature for two hours with DMSO (1-1.6%) or the desired compound (from 25 mM stock in 100% DMSO) in an 2 mL-tube for a final volume of 0.8 mL in YPD, before being centrifuged, washed and frozen as described above. Yeast cells were then harvested for RNA extraction using a RiboPure RNA Purification Kit (Invitrogen, cat #AM1926), which involves mechanical cell wall disruption, phenol extraction of the lysate, and RNA purification using glass fiber, and filter-based RNA purification columns. RNA concentration was measured for individually purified RNA samples using a NanoDrop spectrophotometer. A total of 1 μg RNA from each sample was used for reverse transcription following a published procedure [Choi, S. G. et al 2012].
as §1
Expression of gene X normalized to the control gene expression=k*1.96^(Ct^Control^−Ct^Test^) • where k is an arbitrary multiplier (k=1000 in this study), 1.96 is the PCR amplification efficiency constant, Ct is the cycle threshold, CtControl is the Ct value for the housekeeping gene used as control (UBC6 in yeast [Teste et al 2009]; RPS11 in human cells [Zhan et al 2014], and CtTest is the Ct value for the tested gene. Replicates corresponding to DMSO treatments or WT yeast cells were averaged and other data points normalized using those DMSO or WT values as references (i.e. expression relative to DMSO or WT). TAF10 in yeast or SNRPD3 in human cells were used as genes not known for being regulated by an HDAC complex (HDAC-unrelated genes).

In data set [6] the test system is human neuroblastoma SK-N-BE(2)-C xenograft. As to the kind of experiment: Neuroblastoma xenograft efficacy study. The format is in vivo. To be noted: E6R 50 mg/kg, SAHA 20 mg/kg. The procedure: Xenografts studies were performed at the TRACE PDX platform of the Leuven Cancer Institute (LKI) at KU Leuven-UZ Leuven. Treatment experiments included 24 NMRI-Foxlnu nude mice (Taconic) implanted with human neuroblastoma cell line SK-N-BE(2)-C(2 million cells/implant/mouse). Cells, tested for a full panel of murine pathogens (Impact profile I, IDEXX) prior to engraftment, were resuspended in 50% matrigel solution in PBS for injection in the mouse right flank. When tumors reached a volume of approximately 200 mm^3, mice were randomly assigned to vehicle (34% DMSO, 55% saline 0.9%, 5% ethanol, 5% kolliphor, 1% NaOH 1 M), E6R (50 mg/kg), or SAHA (20 mg/kg) treatment groups. Treatments were administered daily intraperitoneally for 10 days or until reaching human endpoint (i.e. tumor volume >1,500 mm^3). Tumors were measured daily with digital calipers, and volume was estimated as V=L×W×H×(π/6) (L: length; W: width; H: height). […] All data were analyzed using GraphPad Prism 8. Comparisons between the vehicle and treated groups were tested for statistical significance using […].

Data set [7] concerns DOI-induced head-twitch response (HTR). To be noted: literature reports; cited from earlier work.
Data set [8] concerns the target Sin3 PAH2/Ume6 SID interaction (Saccharomyces cerevisiae, UniProt P22579). As to the kind of experiment: biochemical.
Experimental: IC50 determination for unlabeled Ume6 SID, E6, E6R and E6S: the concentrations of FITC-Ume6 SID (30 nM), and GST-Sin3 PAH2 (3 μM) were fixed and the compounds were titrated with an HP D300 (Hewlett-Packard, CA) to the assay plate. The assayed concentrations are given here as μM concentrations: 6, 6.6, 8.6, 11.2, 14.7, 19.3, 25.3, 33.1, 43.4, 56.9, 74.5, 97.7, 128, 167.7, 219.7, 287.9, 377.2, 494.2, 647.5 and 848.3.
Using a fluorescence polarization (FP) assay, the interaction between the two minimal domains of Sin3 and Ume6 reported in the literature was measured [Washburn & Esposito 2001, Le Guezennec et al 2006]: the paired amphipathic helix 2 (PAH2; residues 402-473) and the Sin3-interacting domain (SID; residues 516-531), respectively (FIG. 6A). In this FP setting, Sin3 PAH2 is N-terminally fused to a glutathione S-transferase (GST) tag while Ume6 SID is labeled with a fluorescein isothiocyanate (FITC) probe at the N-terminal position. […] The binding affinity of this interaction was evaluated at 0.9 μM, as reflected by the calculated equilibrium dissociation constant, KD.
To examine inhibition of the Sin3-Ume6 interaction by E6 outside of potential interference from other cellular components, an in vitro fluorescence polarization (FP) assay was used.
Data set [9] concerns the target Sc Sin3 PAH2-Ume6 SID (TAMRA-labeled) interaction (Saccharomyces cerevisiae, UniProt P22579). As to the kind of experiment: biochemical.
Experimental: Symbols represent individual data points (A) or means with SEM, and lines fitted curves.
IC50 determination for unlabeled Ume6 SID, E6, E6R and E6S: the concentrations of FITC-Ume6 SID (30 nM), and GST-Sin3 PAH2 (3 μM) were fixed and the compounds were titrated with an HP D300 (Hewlett-Packard, CA) to the assay plate.
The nature of data set [10]: Mouse liver microsome stability test. In kind it is in vitro ADME. To be noted: 1 mg/mL hepatic microsomes. The procedure: Mouse liver microsome (MLM) half-life measurements were performed by Scripps Florida Pharmacology Core, according to their protocols [Lamberto et al 2017]. 1 mg/mL hepatic microsomes was used to test compounds.
To assess whether E6R may be suitable for testing the effect of HDAC inhibition via new mechanisms in mouse, the half-life […] and intrinsic clearance (Clint) of this compound was first measured using a standard microsomal metabolic assay where sunitinib was used as a control [Lamberto et al 2017]. In this setting, compound degradation is induced by concentrated microsomes isolated from mouse liver. In particular, these hepatic extracts contain the cytochrome P450 system that is primarily responsible for first pass metabolism in vivo.
In general terms: Microsomes from liver hold many membrane-bound enzymes, among them those of drug oxidation.

Values joined by “and” are separate entries in the source; they are usually repeats but may differ in a detail not shown here. Equal entries are not always repeated. “Also recorded” adds a separate entry of the source. Square brackets hold non-standard residues; d marks the D form. Peptide text beside a SMILES is read from it. ξ: configuration not given here. Aoe(9ξ) = N[C@@H](CCCCCC(=O)C1CO1)C(=O)O; dPip = O=C(O)[C@H]1CCCCN1

Broadly, the IC50 is the concentration that inhibits the measured activity by half. Lower therefore signals greater potency in that assay. What is called Ki is the dissociation constant of the complex between target and ligand, obtained from inhibition or displacement. High values mean a looser hold on the target, low ones a stronger hold on the target.

Chain of Sin3 PAH2/Ume6 SID interaction (P22579 402-473): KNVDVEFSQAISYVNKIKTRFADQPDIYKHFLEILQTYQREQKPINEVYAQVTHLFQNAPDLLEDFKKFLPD
Chain of Sc Sin3 PAH2-Ume6 SID (TAMRA-labeled) interaction (P22579 402-473): as above

Take `O=C(CCCCC[C@@H]1NC(=O)[C@H]2CCCCN2C(=O)[C@H](Cc2ccccc2)NC(=O)[C@H](Cc2ccccc2)NC1=O)C1CO1` (stereo partly shown) [TRX, trapoxin A] (cyclo(FF[dPip][Aoe(9ξ)])): in data set [1], the “inhibition of HDAC enzymatic activity” value is reported as “systematically reduced HDAC activity”. In addition, in [2], the “effect on expression of CDKN1A, SOCS3 and EGR1” value (shortened to “effect on expression of CDKN1A”) was “derepressed”. Moreover, in data set [3], the CYH sensitivity result is “induced”. The “Rpd3-sensitive acid phosphatase activity” value in data set [4] was “induced”. The “effect on CAR1 and SPO13 expression” value in data set [5] (250 μM) was “consistently derepressed”. Moreover, the “effect on all Rpd3-regulated loci” value in [5] (FIG. 3I) is “activated all Rpd3-regulated loci”.

`O=C(CCCCCCC(=O)Nc1ccccc1)NO` [SAHA, suberoylanilide hydroxamic acid, reference compound]: the “effect on expression of CDKN1A” value in data set [2] was “derepressed”. The “tolerability and body weight of xenografted mice” value in data set [6] (daily) is “did not affect mice weight; also recorded: well-tolerated”. In addition, in data set [6] (daily intraperitoneally 10 days), the “growth of neuroblastoma tumors compared to vehicle” value is reported as “significantly reduced the growth”. The “head-twitch behavior after chronic treatment” value in [7] was “reduced DOI-induced head-twitch behavior in WT, but not in HDAC2 cKO mice; also recorded: reduces head-twitch response (HTR) behavior”.

Regarding `C[C@H](NC(=O)c1c(O)n2ccccc2nc1=O)c1ccccc1` [E6S], the concentration for half-maximal inhibition (IC50) in data set [8] is 155 µM and 174 µM; in data set [9] it was 597 µM. Besides, the Ki in data set [8] (inhibitory concentration (Ki), from Example 6 IC50, assuming competitive inhibition) was roughly 30 µM; in data set [8] (inhibitory concentrations (Ki), from Example 6A IC50, assumption of competitive inhibition), 38.5 µM. Further, the “effect on expression of CDKN1A” value in [2] is “only perturbed expression of two of the tested downstream genes”.

For `CCN(CC)CCNC(=O)c1c(C)[nH]c(/C=C2\C(=O)Nc3ccc(F)cc32)c1C` [sunitinib, reference compound], in data set [10], the “half-life in mouse liver microsomes” value is reported as roughly 10 min.

The values are drawn from patent US20240299393A1, “SMALL MOLECULE DISRUPTORS OF PROTEIN INTERACTIONS IN HISTONE DEACETYLASE COMPLEXES” (Dana-Farber Cancer Institute, Inc., priority 2021, published 2024).
